Source: EP4417602A1, “SUBSTITUTED PYRAZOLE CARBOXAMIDES, SALTS THEREOF AND THEIR USE AS HERBICIDALLY ACTIVE SUBSTANCES” (Bayer AG, priority 2023, dated 2024)

What follows are molecules tested on LOLRI (assay: A. Herbicidal pre-emergence action on harmful plants (Tables A)). Details: application rate 320 g/ha; visual grading after ca. 3 weeks vs untreated controls; 100% = plants have died off, 0% = as control plants.
Format: in vivo, Lolium rigidum
Summary of the method: (§1)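 Greenhouse pre-emergence test: compound applied to the soil surface at 1280 g/ha or below, and herbicidal effect rated visually at ca. 3 weeks on a 0–100% scale against untreated plants.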

Row | Structure (SMILES) | pre-emergence activity against LOLRI [%]
1 | COCc1nn(C(=O)OC(C)(C)C)cc1C(=O)N1CCCC1Cc1ccccc1F (racemic) [Example I-040] | 90
2 | COCc1c(C(=O)N2CCCC2Cc2ccccc2Cl)cnn1C (racemic) [Example I-170] | 90
3 | COCc1nn(C)cc1C(=O)N1CCCC1C(O)c1ccccc1F (single isomer, unassigned) [Example I-053] | 90

Same assay, conditions: application rate 1280 g/ha; visual grading after ca. 3 weeks vs untreated controls; 100% = plants have died off, 0% = as control plants

Row | Structure (SMILES) | pre-emergence activity against LOLRI [%]
4 | COCc1nn(C(=O)OC(C)(C)C)cc1C(=O)N1CCCC1Cc1ccccc1F (racemic) [Example I-040] | 100
5 | COCc1c(C(=O)N2CCCC2Cc2ccccc2Cl)cnn1C (racemic) [Example I-170] | 90
6 | COCc1nn(C)cc1C(=O)N1CCCC1C(O)c1ccccc1F (single isomer, unassigned) [Example I-053] | 90

These molecules were tested on SETVI in the same assay as above. Details: application rate 320 g/ha; visual grading after ca. 3 weeks vs untreated controls; 100% = plants have died off, 0% = as control plants.
Format: in vivo, Setaria viridis
Summary of the method: as §1

Row | Structure (SMILES) | pre-emergence activity against SETVI [%]
7 | COCc1nn(C(=O)OC(C)(C)C)cc1C(=O)N1CCCC1Cc1ccccc1F (racemic) [Example I-040] | 90
8 | COCc1c(C(=O)N2CCCC2Cc2ccccc2Cl)cnn1C (racemic) [Example I-170] | 90
9 | COCc1nn(C)cc1C(=O)N1CCCC1C(O)c1ccccc1F (single isomer, unassigned) [Example I-053] | 90

Same assay, conditions: application rate 1280 g/ha; visual grading after ca. 3 weeks vs untreated controls; 100% = plants have died off, 0% = as control plants

Row | Structure (SMILES) | pre-emergence activity against SETVI [%]
10 | COCc1nn(C(=O)OC(C)(C)C)cc1C(=O)N1CCCC1Cc1ccccc1F (racemic) [Example I-040] | 90
11 | COCc1c(C(=O)N2CCCC2Cc2ccccc2Cl)cnn1C (racemic) [Example I-170] | 90
12 | COCc1nn(C)cc1C(=O)N1CCCC1C(O)c1ccccc1F (single isomer, unassigned) [Example I-053] | 90

Each molecule was assayed on ALOMY in the same assay as above. Details: application rate 1280 g/ha; Table A9a.
Format: in vivo, Alopecurus myosuroides
Summary of the method: as §1

Row | Structure (SMILES) | pre-emergence activity against ALOMY [%]
13 | COCc1nn(C(=O)OC(C)(C)C)cc1C(=O)N1CCCC1Cc1ccccc1F (racemic) [Example I-040] | 90
14 | COCc1c(C(=O)N2CCCC2Cc2ccccc2Cl)cnn1C (racemic) [Example I-170] | 90

The molecules below were run on ECHCG (assay: B. Herbicidal post-emergence action on harmful plants (Tables B)). Details: application rate 320 g/ha; Table B2b.
Format: in vivo, Echinochloa crus-galli
Summary of the method: (§2)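 Activity was scored visually as % damage (100% = dead, 0% = like untreated) about 3 weeks after treatment. Plants at the one-leaf stage, 2-3 weeks old, were sprayed with WP/EC formulations plus 0.5% additive (600 L/ha water, up to 1280 g/ha). Plants were grown in sandy loam in a greenhouse.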

Row | Structure (SMILES) | post-emergence activity against ECHCG [%]
15 | COCc1c(C(=O)N2CCCC2Cc2ccccc2Cl)cnn1C (racemic) [Example I-170] | 90

Same assay, conditions: application rate 1280 g/ha; Table B2a

Row | Structure (SMILES) | post-emergence activity against ECHCG [%]
16 | COCc1nn(C(=O)OC(C)(C)C)cc1C(=O)N1CCCC1Cc1ccccc1F (racemic) [Example I-040] | 90
17 | COCc1c(C(=O)N2CCCC2Cc2ccccc2Cl)cnn1C (racemic) [Example I-170] | 90
18 | COCc1nn(C)cc1C(=O)N1CCCC1C(O)c1ccccc1F (single isomer, unassigned) [Example I-053] | 90

These molecules were tested on POAAN in the same assay as above. Details: application rate 320 g/ha; Table B7b.
Format: in vivo, Poa annua
Summary of the method: as §2

Row | Structure (SMILES) | post-emergence activity against POAAN [%]
19 | COCc1c(C(=O)N2CCCC2Cc2ccccc2Cl)cnn1C (racemic) [Example I-170] | 90

Same assay, conditions: application rate 1280 g/ha; Table B7a

Row | Structure (SMILES) | post-emergence activity against POAAN [%]
20 | COCc1c(C(=O)N2CCCC2Cc2ccccc2Cl)cnn1C (racemic) [Example I-170] | 90

What follows are molecules tested on ALOMY (assay: C. Herbicidal pre-emergence action, weed and crop plants (Tables C)). Details: application rate 80 g/ha; Table C2b.
Format: in vivo, Alopecurus myosuroides
Text: (§3) Seeds of mono- and dicotyledonous weed plants and crop plants were sown, in plastic or organic planting pots, in sandy loam and covered with soil. The compounds according to the invention, formulated in the form of wettable powders (WP) or as emulsifiable concentrates (EC), were applied to the surface of the covering soil as aqueous suspension or emulsion, with the addition of 0.5% of an additive, at an application rate of 6001 of water/ha (converted). Following treatment, the pots were placed in a greenhouse and kept under optimum growth conditions for the test plants. The visual grading of the damage to the test plants was carried out after ca. 3 weeks in comparison to untreated controls (herbicidal effect in percent (%): 100% effect = plants have died off, 0% effect = as control plants). Tables C1 to C12 below show the effects of selected compounds of the general formula (I) according to table 1 on various harmful plants and an application rate corresponding to 320 g/ha or below obtained by the experimental procedure mentioned above. Table C1: pre-emergence activity at 320g/ha against KCHSC in %

Row | Structure (SMILES) | pre-emergence activity against ALOMY [%]
21 | COCc1c(C(=O)N2CCCC2Cc2ccccc2Cl)cnn1C (racemic) [Example I-170] | 90
22 | COCc1nn(C)cc1C(=O)N1CCCC1C(O)c1ccccc1F (single isomer, unassigned) [Example I-053] | 80

Same assay, conditions: application rate 320 g/ha; Table C2a

Row | Structure (SMILES) | pre-emergence activity against ALOMY [%]
23 | COCc1nn(C(=O)OC(C)(C)C)cc1C(=O)N1CCCC1Cc1ccccc1F (racemic) [Example I-040] | 80
24 | COCc1c(C(=O)N2CCCC2Cc2ccccc2Cl)cnn1C (racemic) [Example I-170] | 90
25 | COCc1nn(C)cc1C(=O)N1CCCC1C(O)c1ccccc1F (single isomer, unassigned) [Example I-053] | 90

The molecules below were run on MATIN in the same assay as above. Details: application rate 320 g/ha; Table C8.
Format: in vivo, Matricaria inodora
Text: as §3

Row | Structure (SMILES) | pre-emergence activity against MATIN [%]
26 | COCc1nn(C(=O)OC(C)(C)C)cc1C(=O)N1CCCC1Cc1ccccc1F (racemic) [Example I-040] | 80
27 | COCc1c(C(=O)N2CCCC2Cc2ccccc2Cl)cnn1C (racemic) [Example I-170] | 80
28 | COCc1nn(C)cc1C(=O)N1CCCC1C(O)c1ccccc1F (single isomer, unassigned) [Example I-053] | 80

Each molecule was assayed on ZEAMX (assay: D. Pre-emergence effects on crop plants (Tables D)). Details: crop plant; application rate 80 g/ha; Table D1b.
Format: in vivo, Zea mays
Summary of the method: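 Pre-emergence soil-surface treatment at 320 g/ha or lower, using wettable-powder or emulsifiable-concentrate formulations in water plus 0.5% additive, over freshly sown seeds in covered sandy loam. Damage was rated visually as percent versus untreated pots (100% = dead plants) after about 3 weeks of greenhouse growth.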

Row | Structure (SMILES) | pre-emergence activity against ZEAMX [%]
29 | COCc1nn(C(=O)OC(C)(C)C)cc1C(=O)N1CCCC1Cc1ccccc1F (racemic) [Example I-040] | 20

Each molecule was assayed on BRSNW (assay: F. Post-emergence effects on crop plants (Tables F)). Details: application rate 320 g/ha, crop plant.
Format: in vivo, Brassica napus
Summary of the method: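 Plants were grown in sandy loam in a greenhouse and sprayed post-emergence at the single-leaf stage, 2–3 weeks after sowing. Visual damage was scored after ca. 3 weeks against untreated controls (0% = as control, 100% = dead).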

Row | Structure (SMILES) | post-emergence activity against BRSNW in % [%]
30 | COCc1nn(C(=O)OC(C)(C)C)cc1C(=O)N1CCCC1Cc1ccccc1F (racemic) [Example I-040] | 0
31 | COCc1c(C(=O)N2CCCC2Cc2ccccc2Cl)cnn1C (racemic) [Example I-170] | 0
32 | COCc1nn(C)cc1C(=O)N1CCCC1C(O)c1ccccc1F (single isomer, unassigned) [Example I-053] | 20
